According to patent publication US9376418B2, “Substituted pyridine spleen tyrosine kinase (SYK) inhibitors” (Merck Sharp & Dohme Corp., priority 2012, dated 2016):

What follows are molecules tested against T1, recombinant human GST-SYK (Homo sapiens, UniProt P43405) (assay: Homogeneous Time-Resolved Fluorescence (HTRF) assay for the recombinant human Syk enzyme). Details: HTRF assay, recombinant human GST-SYK; IC50 given as class symbols; read-out: rhSYK Activity.
T1 construct: purchased Carna Biosciences 08-176
Assay type: biochemical
How it was run: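 Enzyme […], pH 7.5 Tris/tween/DTT buffer; 10 min preincubation with compound, RT. Start: 250 nM biotin-peptide, 25 μM ATP, 5 mM Mg; 45′ RT. Stop/detect: 40 mM EDTA, Eu-anti-pTyr, SA-APC; read 30 min later.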

Row | Structure (SMILES) | IC50
1 | Cc1cc(Nc2nccc(C(F)(F)F)n2)cc(-c2ccc(C(=O)NS(N)(=O)=O)nc2)c1 [Example 16.2] | < 0.1 µM
2 | Cc1cc(Nc2nccc(C(F)(F)F)n2)cc(-c2ccc(C(=O)N3CCOC3=O)nc2)c1 [Example 16.3, 3-{[5-(3-Methyl-5-{[4-(trifluoromethyl)pyrimidin-2-yl]amino}phenyl)pyridin-2-yl]carbonyl}-1,3-oxazolidin-2-one] | < 0.1 µM
3 | Cc1cc(Nc2nccc(C(F)(F)F)n2)cc(-c2ccc(C(=O)N3CCNC(=O)C3)nc2)c1 [Example 16.4, 4-{[5-(3-Methyl-5-{[4-(trifluoromethyl)pyrimidin-2-yl]amino}phenyl)pyridin-2-yl]carbonyl}piperazin-2-one] | < 0.1 µM
4 | Cc1cc(Nc2nccc(C(F)(F)F)n2)cc(-c2ccc(C(=O)NCCO)nc2)c1 [Example 16.5, N-(2-hydroxyethyl)-5-(3-methyl-5-{[4-(trifluoromethyl)pyrimidin-2-yl]amino}phenyl)pyridine-2-carboxamide] | < 0.1 µM
5 | Cc1cc(Nc2nccc(C(F)(F)F)n2)cc(-c2ccc(C(=O)N(C)CCO)nc2)c1 [Example 16.6, N-(2-hydroxyethyl)-N-methyl-5-(3-methyl-5-{[4-(trifluoromethyl)pyrimidin-2-yl]amino}phenyl)pyridine-2-carboxamide] | < 0.1 µM
6 | Cc1cc(Nc2nccc(C(F)(F)F)n2)cc(-c2ccc(C(=O)NC(C)CO)nc2)c1 (stereo not drawn) [Example 16.7, N-(2-hydroxy-1-methylethyl)-5-(3-methyl-5-{[4-(trifluoromethyl)pyrimidin-2-yl]amino}phenyl)pyridine-2-carboxamide] | < 0.1 µM
7 | Cc1cc(Nc2nccc(C(F)(F)F)n2)cc(-c2ccc(C(=O)NC3(CO)CC3)nc2)c1 [Example 16.8, N-[1-(hydroxymethyl)cyclopropyl]-5-(3-methyl-5-{[4-(trifluoromethyl)pyrimidin-2-yl]amino}phenyl)pyridine-2-carboxamide] | 0.1 to 1 µM
8 | CCC(CO)NC(=O)c1ccc(-c2cc(C)cc(Nc3nccc(C(F)(F)F)n3)c2)cn1 (stereo not drawn) [Example 16.9, N-[1-(hydroxymethyl)propyl]-5-(3-methyl-5-{[4-(trifluoromethyl)pyrimidin-2-yl]amino}phenyl)pyridine-2-carboxamide] | 0.1 to 1 µM
9 | Cc1cc(Nc2nccc(C(F)(F)F)n2)cc(-c2ccc(C(=O)NCC(C)(C)O)nc2)c1 [Example 16.10, N-(2-hydroxy-2-methylpropyl)-5-(3-methyl-5-{[4-(trifluoromethyl)pyrimidin-2-yl]amino}phenyl)pyridine-2-carboxamide] | 0.1 to 1 µM
10 | Cc1cc(Nc2nccc(C(F)(F)F)n2)cc(-c2ccc(C(=O)NC(C)(C)CO)nc2)c1 [Example 16.11, N-(2-hydroxy-1,1-dimethylethyl)-5-(3-methyl-5-{[4-(trifluoromethyl)pyrimidin-2-yl]amino}phenyl)pyridine-2-carboxamide] | 0.1 to 1 µM
11 | Cc1cc(Nc2nccc(C(F)(F)F)n2)cc(-c2ccc(C(=O)N3CCN(C)CC3)nc2)c1 [Example 16.12, N-(3-methyl-5-{6-[(4-methylpiperazin-1-yl)carbonyl]pyridin-3-yl}phenyl)-4-(trifluoromethyl)pyrimidin-2-amine] | 0.1 to 1 µM
12 | Cc1cc(Nc2nccc(C(F)(F)F)n2)cc(-c2ccc(C(=O)NC(C)(CO)CO)nc2)c1 [Example 16.13, N-[2-hydroxy-1-(hydroxymethyl)-1-methylethyl]-5-(3-methyl-5-{[4-(trifluoromethyl)pyrimidin-2-yl]amino}phenyl)pyridine-2-carboxamide] | < 0.1 µM
13 | Cc1cc(Nc2nccc(C(F)(F)F)n2)cc(-c2ccc(C(=O)NCc3cnn(C)c3)nc2)c1 [Example 16.14, N-[(1-methyl-1H-pyrazol-4-yl)methyl]-5-(3-methyl-5-{[4-(trifluoromethyl)pyrimidin-2-yl]amino}phenyl)pyridine-2-carboxamide] | 0.1 to 1 µM
14 | Cc1cc(Nc2nccc(C(F)(F)F)n2)cc(-c2ccc(C(=O)NCc3cncn3C)nc2)c1 [Example 16.15, N-[(1-methyl-1H-imidazol-5-yl)methyl]-5-(3-methyl-5-{[4-(trifluoromethyl)pyrimidin-2-yl]amino}phenyl)pyridine-2-carboxamide] | 0.1 to 1 µM
15 | Cc1cc(Nc2nccc(C(F)(F)F)n2)cc(-c2ccc(C(=O)NCc3cn(C)cn3)nc2)c1 [Example 16.17, N-[(1-methyl-1H-imidazol-4-yl)methyl]-5-(3-methyl-5-{[4-(trifluoromethyl)pyrimidin-2-yl]amino}phenyl)pyridine-2-carboxamide] | 0.1 to 1 µM
16 | Cc1cc(Nc2nccc(C(F)(F)F)n2)cc(-c2ccc(C(=O)N3CC(=O)NC(=O)C3)nc2)c1 [Example 16.18, 4-{[5-(3-methyl-5-{[4-(trifluoromethyl)pyrimidin-2-yl]amino}phenyl)pyridin-2-yl]carbonyl}piperazine-2,6-dione] | < 0.1 µM
17 | Cc1cc(Nc2nccc(C(F)(F)F)n2)cc(-c2ccc(C(=O)N3CCNC(=O)CC3)nc2)c1 [Example 16.19, 1-{[5-(3-methyl-5-{[4-(trifluoromethyl)pyrimidin-2-yl]amino}phenyl)pyridin-2-yl]carbonyl}-1,4-diazepan-5-one] | < 0.1 µM

Row | Structure (SMILES) | IC50
18 | Cc1cc(Nc2nccc(C(F)(F)F)n2)cc(-c2ccc(C(=O)N3CCN(C)C(=O)C3)nc2)c1 [Example 16.20, 1-methyl-4-{[5-(3-methyl-5-{[4-(trifluoromethyl)pyrimidin-2-yl]amino}phenyl)pyridin-2-yl]carbonyl}piperazin-2-one] | < 0.1 µM
19 | Cc1cc(Nc2nccc(C(F)(F)F)n2)cc(-c2ccc(C(=O)NC3(CO)CCCC3)nc2)c1 [Example 16.21, N-[1-(hydroxymethyl)cyclopentyl]-5-(3-methyl-5-{[4-(trifluoromethyl)pyrimidin-2-yl]amino}phenyl)pyridin-2-carboxamide] | 0.1 to 1 µM
20 | Cc1cc(Nc2nccc(C(F)(F)F)n2)cc(-c2ccc(C(=O)NC(C)c3ccccn3)nc2)c1 (stereo not drawn) [Example 16.22, 5-(3-methyl-5-{[4-(trifluoromethyl)pyrimidin-2-yl]amino}phenyl)-N-(1-pyridin-2-ylethyl)pyridine-2-carboxamide] | 0.1 to 1 µM
21 | Cc1cc(Nc2nccc(C(F)(F)F)n2)cc(-c2ccc(C(=O)N3CCN(C)C(=O)C3C)nc2)c1 (stereo not drawn) [Example 16.23, 1,3-dimethyl-4-{[5-(3-methyl-5-{[4-(trifluoromethyl)pyrimidin-2-yl]amino}phenyl)pyridin-2-yl]carbonyl}piperazin-2-one] | 0.1 to 1 µM
22 | CC(=O)N1CCN(C(=O)c2ccc(-c3cc(C)cc(Nc4nccc(C(F)(F)F)n4)c3)cn2)CC1 [Example 16.24, N-(3-{6-[(4-acetylpiperazin-1-yl)carbonyl]pyridin-3-yl}-5-methylphenyl)-4-(trifluoromethyl)pyrimidin-2-amine] | < 0.1 µM
23 | Cc1cc(Nc2nccc(C(F)(F)F)n2)cc(-c2ccc(C(=O)N(C)CCC3OCCO3)nc2)c1 [Example 16.25, N-[2-(1,3-dioxolan-2-yl)ethyl]-N-methyl-5-(3-methyl-5-{[4-(trifluoromethyl)pyimidin-2-yl]amino}phenyl)pyridine-2-carboxamide] | 0.1 to 1 µM
24 | Cc1cc(Nc2nccc(C(F)(F)F)n2)cc(-c2ccc(C(=O)NC3CCNC3=O)nc2)c1 (stereo not drawn) [Example 16.26, 5-(3-methyl-5-{[4-(trifluoromethyl)pyrimidin-2-yl]amino}phenyl)-N-(2-oxopyrrolidin-3-yl)pyridine-2-carboxamide] | < 0.1 µM
25 | Cc1cc(Nc2nccc(C(F)(F)F)n2)cc(-c2ccc(C(=O)NCc3ncnn3C)nc2)c1 [Example 16.27, N-[(1-methyl-1H-1,2,4-triazol-5-yl)methyl]-5-(3-methyl-5-{[4-(trifluoromethyl)pyrimidin-2-yl]amino}phenyl)pyridine-2-carboxamide] | 0.1 to 1 µM
26 | C=C(F)CNC(=O)c1ccc(-c2cc(C)cc(Nc3nccc(C(F)(F)F)n3)c2)cn1 [Example 16.28, N-(2-fluoroprop-2-en-1-yl)-5-(3-methyl-5-{[4-(trifluoromethyl)pyrimidin-2-yl]amino}phenyl)pyridine-2-carboxamide] | 0.1 to 1 µM
27 | Cc1cc(Nc2nccc(C(F)(F)F)n2)cc(-c2ccc(C(=O)Nc3cncnc3)nc2)c1 [Example 16.29, 5-(3-methyl-5-{[4-(trifluoromethyl)pyrimidin-2-yl]amino}phenyl)-N-pyrimidin-5-ylpyridine-2-carboxamide] | 0.1 to 1 µM
28 | Cc1cc(Nc2nccc(C(F)(F)F)n2)cc(-c2ccc(C(=O)NCC3CCC(=O)N3)nc2)c1 (stereo not drawn) [Example 16.30, 5-(3-methyl-5-{[4-(trifluoromethyl)pyrimidin-2-yl]amino}phenyl)-N-[(5-oxopyrrolidin-2-yl)methyl]pyridine-2-carboxamide] | < 0.1 µM
29 | Cc1cc(Nc2nccc(C(F)(F)F)n2)cc(-c2ccc(C(=O)NCC3COCCO3)nc2)c1 (stereo not drawn) [Example 16.31] | 0.1 to 1 µM
30 | Cc1cc(Nc2nccc(C(F)(F)F)n2)cc(-c2ccc(C(=O)N3CCn4ccnc4C3)nc2)c1 [Example 16.32, N-{3-[6-(5,6-dihydroimidazo[1,2-a]pyrazin-7(8H)-ylcarbonyl)pyridin-3-yl]-5-methylphenyl}-4-(trifluoromethyl)pyrimidin-2-amine] | < 0.1 µM
31 | Cc1cc(Nc2nccc(C(F)(F)F)n2)cc(-c2ccc(C(=O)NC3CCOC3)nc2)c1 (stereo not drawn) [Example 16.33, 5-(3-methyl-5-{[4-(trifluoromethyl)pyrimidin-2-yl]amino}phenyl)-N-(tetrahydrofuran-3-yl)pyridine-2-carboxamide] | 0.1 to 1 µM
32 | COC1CN(C(=O)c2ccc(-c3cc(C)cc(Nc4nccc(C(F)(F)F)n4)c3)cn2)C1 [Example 16.34, N-(3-{6-[(3-methoxyazetidin-1-yl)carbonyl]pyridin-3-yl}-5-methylphenyl)-4-(trifluoromethyl)pyrimidin-2-amine] | 0.1 to 1 µM
33 | Cc1cc(Nc2nccc(C(F)(F)F)n2)cc(-c2ccc(C(=O)NCC(O)CCCl)nc2)c1 (stereo not drawn) [Example 16.35, N-(4-chloro-2-hydroxybutyl)-5-(3-methyl-5-{[4-(trifluoromethyl)pyrimidin-2-yl]amino}phenyl)pyridine-2-carboxamide] | 0.1 to 1 µM
